For this assay, the target named is T1, renin (Homo sapiens, UniProt P00797).
T1 construct: This test measures the formation of angiotensin I in human plasma; from tissue; host or cells: human plasma
T1 sequence (P00797 67-406): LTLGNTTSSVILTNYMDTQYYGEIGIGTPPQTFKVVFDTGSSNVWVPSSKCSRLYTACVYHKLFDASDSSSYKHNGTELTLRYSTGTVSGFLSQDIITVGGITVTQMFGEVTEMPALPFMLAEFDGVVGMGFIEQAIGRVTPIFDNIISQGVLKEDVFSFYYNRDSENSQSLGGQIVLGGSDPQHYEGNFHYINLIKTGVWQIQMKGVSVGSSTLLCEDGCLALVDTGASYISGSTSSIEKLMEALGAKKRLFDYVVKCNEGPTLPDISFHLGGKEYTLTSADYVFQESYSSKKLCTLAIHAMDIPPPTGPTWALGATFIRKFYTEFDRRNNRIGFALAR
Put plainly: in vitro test of Nussberger et al.: formation of angiotensin I in human plasma, radio-immunoassay. In kind it is biochemical. Particulars: concentration which reduces the formation of angiotensin I in human plasma by 50%. As to the method: The effect of renin inhibitors is detected inter alia experimentally by means of in vitro tests where the reduction in the formation of angiotensin I is measured in various systems (human plasma, purified human renin together with synthetic or natural renin substrate). The following in vitro test of Nussberger et al. (1987) J. Cardiovascular Pharmacol., Vol. 9, pp. 39-44, is used inter alia. This test measures the formation of angiotensin I in human plasma. The amount of angiotensin I formed is determined in a subsequent radio-immunoassay. The effect of inhibitors on the formation of angiotensin I is tested in this system by adding various concentrations of these substances. The IC50 is defined as the concentration of the particular inhibitor which reduces the formation of angiotensin I by 50%.

In general, IC50 refers to the point on the concentration scale where inhibition reaches its midpoint. Higher therefore signals weaker potency in that assay. Consider `COCCCOc1cc(C[C@@H](C[C@H](N)[C@@H](O)C[C@H](C(=O)NC[C@H]2CCCO2)C(C)C)C(C)C)ccc1OC` [Example 1, 5-Amino-4-hydroxy-2-isopropyl-7-[4-methoxy-3-(3-methoxypropoxy)benzyl]-8-methyl-N-(tetrahydrofuran-2(R)-ylmethyl)nonamide], for which the IC50 turned out to be 2.6 nM.
